The source made the active and inactive calls.
Tests used:
[1] = biological target: Serine/threonine-protein kinase PLK1 (Homo sapiens, UniProt P53350)
[2] = biological target: T1, Tyrosine-protein kinase Mer (Homo sapiens, UniProt Q12866)
T1 sequence (Q12866 whole entry): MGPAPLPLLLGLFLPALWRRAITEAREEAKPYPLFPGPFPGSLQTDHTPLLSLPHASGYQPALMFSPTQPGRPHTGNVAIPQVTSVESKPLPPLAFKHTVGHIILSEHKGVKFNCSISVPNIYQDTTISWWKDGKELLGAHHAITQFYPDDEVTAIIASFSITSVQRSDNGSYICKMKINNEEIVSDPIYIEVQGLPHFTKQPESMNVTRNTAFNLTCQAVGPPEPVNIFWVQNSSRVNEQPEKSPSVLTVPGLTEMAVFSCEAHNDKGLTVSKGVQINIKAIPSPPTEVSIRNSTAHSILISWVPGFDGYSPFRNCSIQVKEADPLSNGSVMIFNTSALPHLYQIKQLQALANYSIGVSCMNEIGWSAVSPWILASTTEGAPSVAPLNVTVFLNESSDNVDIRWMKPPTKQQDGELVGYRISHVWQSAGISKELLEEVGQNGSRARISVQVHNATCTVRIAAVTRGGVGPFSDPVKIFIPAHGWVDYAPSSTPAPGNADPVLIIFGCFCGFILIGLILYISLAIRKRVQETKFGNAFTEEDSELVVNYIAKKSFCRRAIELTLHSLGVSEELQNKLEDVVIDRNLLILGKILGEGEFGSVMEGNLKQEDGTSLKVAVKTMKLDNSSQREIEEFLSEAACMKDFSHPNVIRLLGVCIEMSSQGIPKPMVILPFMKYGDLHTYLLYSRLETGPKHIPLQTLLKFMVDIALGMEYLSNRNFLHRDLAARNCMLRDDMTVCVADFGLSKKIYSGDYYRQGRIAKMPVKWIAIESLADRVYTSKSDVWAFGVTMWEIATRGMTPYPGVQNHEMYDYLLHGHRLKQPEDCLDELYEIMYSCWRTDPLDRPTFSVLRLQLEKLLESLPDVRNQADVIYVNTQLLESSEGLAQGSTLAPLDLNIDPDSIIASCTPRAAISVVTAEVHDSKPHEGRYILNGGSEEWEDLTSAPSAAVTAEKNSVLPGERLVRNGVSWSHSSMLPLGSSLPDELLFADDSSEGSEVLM

[3] = biological target: Serine/threonine-protein kinase pim-2 (Homo sapiens, UniProt Q9P1W9)
Serine/threonine-protein kinase pim-2, sequence (Q9P1W9 whole entry): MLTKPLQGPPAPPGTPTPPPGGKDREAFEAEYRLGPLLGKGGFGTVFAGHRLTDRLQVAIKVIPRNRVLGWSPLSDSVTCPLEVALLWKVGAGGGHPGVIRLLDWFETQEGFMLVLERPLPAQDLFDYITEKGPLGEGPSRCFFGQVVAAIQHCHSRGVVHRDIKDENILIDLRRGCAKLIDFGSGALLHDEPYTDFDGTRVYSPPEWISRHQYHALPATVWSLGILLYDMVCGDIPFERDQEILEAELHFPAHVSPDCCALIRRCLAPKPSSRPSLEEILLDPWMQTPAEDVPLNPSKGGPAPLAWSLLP

[4] = biological target: Serine/threonine-protein kinase N3 (Homo sapiens, UniProt Q6P5Z2)
Serine/threonine-protein kinase N3, sequence (Q6P5Z2 whole entry): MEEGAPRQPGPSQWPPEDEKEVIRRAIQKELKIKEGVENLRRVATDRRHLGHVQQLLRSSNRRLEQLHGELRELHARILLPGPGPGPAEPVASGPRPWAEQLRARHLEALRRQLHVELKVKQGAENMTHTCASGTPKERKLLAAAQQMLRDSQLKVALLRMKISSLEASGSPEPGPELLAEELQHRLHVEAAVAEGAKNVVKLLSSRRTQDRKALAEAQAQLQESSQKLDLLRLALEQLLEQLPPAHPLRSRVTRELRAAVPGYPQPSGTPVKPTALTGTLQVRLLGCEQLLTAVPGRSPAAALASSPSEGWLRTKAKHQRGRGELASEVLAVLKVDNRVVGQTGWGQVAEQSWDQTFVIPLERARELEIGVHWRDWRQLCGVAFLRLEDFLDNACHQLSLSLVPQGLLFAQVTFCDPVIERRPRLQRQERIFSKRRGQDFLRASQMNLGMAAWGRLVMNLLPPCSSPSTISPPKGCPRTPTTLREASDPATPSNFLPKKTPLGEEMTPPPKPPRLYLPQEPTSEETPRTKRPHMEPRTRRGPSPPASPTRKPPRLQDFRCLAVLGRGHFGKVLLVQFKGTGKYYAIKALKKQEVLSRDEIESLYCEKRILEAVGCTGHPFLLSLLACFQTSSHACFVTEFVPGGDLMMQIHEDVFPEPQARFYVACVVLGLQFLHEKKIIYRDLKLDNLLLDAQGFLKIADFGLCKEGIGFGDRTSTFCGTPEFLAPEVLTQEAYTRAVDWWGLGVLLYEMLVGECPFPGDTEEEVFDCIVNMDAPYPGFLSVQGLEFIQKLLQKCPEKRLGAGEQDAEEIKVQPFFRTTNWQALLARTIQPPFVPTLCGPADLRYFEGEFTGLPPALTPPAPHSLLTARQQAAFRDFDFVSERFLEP

[5] = biological target: Dual specificity testis-specific protein kinase 2 (Homo sapiens, UniProt Q96S53)
[6] = biological target: Tyrosine-protein kinase Fgr (Homo sapiens, UniProt P09769)
Tyrosine-protein kinase Fgr, sequence (P09769 whole entry): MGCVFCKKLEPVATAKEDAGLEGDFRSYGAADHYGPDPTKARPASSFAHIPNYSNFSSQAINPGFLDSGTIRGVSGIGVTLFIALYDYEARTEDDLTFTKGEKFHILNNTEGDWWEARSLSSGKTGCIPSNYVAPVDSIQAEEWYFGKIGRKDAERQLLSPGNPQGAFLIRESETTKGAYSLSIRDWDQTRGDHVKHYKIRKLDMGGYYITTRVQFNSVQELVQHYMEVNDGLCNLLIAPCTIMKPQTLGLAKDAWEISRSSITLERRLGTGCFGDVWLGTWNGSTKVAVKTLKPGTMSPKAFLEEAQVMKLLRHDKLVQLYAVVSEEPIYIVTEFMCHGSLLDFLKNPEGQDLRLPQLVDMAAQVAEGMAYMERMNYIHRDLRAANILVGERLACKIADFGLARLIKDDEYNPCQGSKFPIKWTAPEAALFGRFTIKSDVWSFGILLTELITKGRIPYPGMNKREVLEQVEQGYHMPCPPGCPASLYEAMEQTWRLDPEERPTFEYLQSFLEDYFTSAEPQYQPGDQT

Misshapen-like kinase 1 = Misshapen-like kinase 1 (Homo sapiens, UniProt Q8N4C8)
Misshapen-like kinase 1, sequence (Q8N4C8 whole entry): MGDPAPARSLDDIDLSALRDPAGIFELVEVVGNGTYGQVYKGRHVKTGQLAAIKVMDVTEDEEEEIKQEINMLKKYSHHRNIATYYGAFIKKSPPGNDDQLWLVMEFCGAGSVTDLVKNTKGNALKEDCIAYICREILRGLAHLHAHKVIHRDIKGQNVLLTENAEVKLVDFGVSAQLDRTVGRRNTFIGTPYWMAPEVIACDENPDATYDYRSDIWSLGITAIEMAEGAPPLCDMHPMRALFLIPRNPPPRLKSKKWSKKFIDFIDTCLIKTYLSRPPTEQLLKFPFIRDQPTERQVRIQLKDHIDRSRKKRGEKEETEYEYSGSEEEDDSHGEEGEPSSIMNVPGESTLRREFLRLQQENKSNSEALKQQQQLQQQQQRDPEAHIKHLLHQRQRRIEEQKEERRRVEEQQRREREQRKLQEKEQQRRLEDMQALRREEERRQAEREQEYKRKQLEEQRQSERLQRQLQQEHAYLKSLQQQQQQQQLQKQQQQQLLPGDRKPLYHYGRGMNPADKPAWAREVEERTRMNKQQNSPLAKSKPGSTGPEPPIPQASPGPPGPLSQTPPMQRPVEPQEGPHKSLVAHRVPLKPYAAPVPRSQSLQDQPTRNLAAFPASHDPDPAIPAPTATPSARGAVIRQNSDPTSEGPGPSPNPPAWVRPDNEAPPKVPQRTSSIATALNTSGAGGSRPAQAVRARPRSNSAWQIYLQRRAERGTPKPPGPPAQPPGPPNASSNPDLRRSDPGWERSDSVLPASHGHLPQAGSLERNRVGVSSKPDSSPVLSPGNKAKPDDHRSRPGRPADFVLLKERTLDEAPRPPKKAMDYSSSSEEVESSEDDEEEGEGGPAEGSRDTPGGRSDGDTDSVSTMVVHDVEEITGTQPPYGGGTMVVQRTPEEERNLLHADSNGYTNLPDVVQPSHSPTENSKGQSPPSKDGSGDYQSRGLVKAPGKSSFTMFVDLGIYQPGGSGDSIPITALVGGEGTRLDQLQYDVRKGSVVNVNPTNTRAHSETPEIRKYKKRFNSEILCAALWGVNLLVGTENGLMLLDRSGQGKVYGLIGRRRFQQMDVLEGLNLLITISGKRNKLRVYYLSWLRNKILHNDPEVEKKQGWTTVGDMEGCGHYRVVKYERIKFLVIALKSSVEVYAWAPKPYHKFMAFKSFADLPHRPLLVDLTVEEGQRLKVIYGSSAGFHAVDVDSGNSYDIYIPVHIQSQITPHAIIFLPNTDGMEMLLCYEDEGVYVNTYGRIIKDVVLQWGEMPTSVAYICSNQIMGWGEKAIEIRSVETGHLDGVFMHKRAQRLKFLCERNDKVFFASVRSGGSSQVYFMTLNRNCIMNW

[7] = biological target: T2, Cyclin-dependent kinase-like 5 (Homo sapiens, UniProt O76039)
T2 sequence (O76039 whole entry): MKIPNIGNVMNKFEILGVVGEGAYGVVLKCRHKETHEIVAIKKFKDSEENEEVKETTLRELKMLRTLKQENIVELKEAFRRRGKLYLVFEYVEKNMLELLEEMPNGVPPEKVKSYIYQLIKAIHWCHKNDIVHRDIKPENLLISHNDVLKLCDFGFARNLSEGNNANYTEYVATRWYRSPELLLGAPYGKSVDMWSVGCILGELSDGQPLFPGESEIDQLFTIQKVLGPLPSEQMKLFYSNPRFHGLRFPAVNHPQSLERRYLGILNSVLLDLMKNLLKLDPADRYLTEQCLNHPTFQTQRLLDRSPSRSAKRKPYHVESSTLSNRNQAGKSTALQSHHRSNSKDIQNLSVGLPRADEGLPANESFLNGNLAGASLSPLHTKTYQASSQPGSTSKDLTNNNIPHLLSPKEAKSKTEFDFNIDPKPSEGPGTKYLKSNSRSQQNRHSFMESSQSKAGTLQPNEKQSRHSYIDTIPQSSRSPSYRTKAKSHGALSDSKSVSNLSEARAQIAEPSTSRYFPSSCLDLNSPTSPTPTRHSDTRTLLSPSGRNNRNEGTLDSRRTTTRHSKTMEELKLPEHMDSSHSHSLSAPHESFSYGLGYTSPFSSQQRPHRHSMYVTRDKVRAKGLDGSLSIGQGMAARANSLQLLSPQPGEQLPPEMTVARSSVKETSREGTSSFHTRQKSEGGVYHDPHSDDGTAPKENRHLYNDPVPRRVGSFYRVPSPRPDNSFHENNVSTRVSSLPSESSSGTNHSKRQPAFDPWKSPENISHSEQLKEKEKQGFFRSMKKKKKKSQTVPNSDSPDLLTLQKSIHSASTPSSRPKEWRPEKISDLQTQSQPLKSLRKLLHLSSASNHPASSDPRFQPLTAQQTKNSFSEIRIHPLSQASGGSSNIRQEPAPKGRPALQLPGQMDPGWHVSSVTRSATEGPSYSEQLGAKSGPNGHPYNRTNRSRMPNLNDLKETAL

[8] = biological target: Cyclin-dependent kinase 10 (Homo sapiens, UniProt Q15131)
Cyclin-dependent kinase 10, sequence (Q15131 whole entry): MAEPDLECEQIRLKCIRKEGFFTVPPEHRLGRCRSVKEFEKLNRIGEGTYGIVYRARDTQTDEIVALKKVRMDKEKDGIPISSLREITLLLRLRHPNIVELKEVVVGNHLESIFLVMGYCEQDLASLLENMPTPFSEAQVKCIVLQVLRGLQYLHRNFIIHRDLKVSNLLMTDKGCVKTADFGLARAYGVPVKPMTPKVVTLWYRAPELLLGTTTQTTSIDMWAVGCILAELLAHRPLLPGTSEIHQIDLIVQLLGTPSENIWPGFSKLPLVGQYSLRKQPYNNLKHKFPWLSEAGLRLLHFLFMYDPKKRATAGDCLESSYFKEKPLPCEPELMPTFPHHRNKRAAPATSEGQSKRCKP

[9] = biological target: Eukaryotic peptide chain release factor GTP-binding subunit ERF3B (Homo sapiens, UniProt Q8IYD1)
[10] = biological target: Serine/threonine-protein kinase 38-like (Homo sapiens, UniProt Q9Y2H1)
Serine/threonine-protein kinase 38-like, sequence (Q9Y2H1 whole entry): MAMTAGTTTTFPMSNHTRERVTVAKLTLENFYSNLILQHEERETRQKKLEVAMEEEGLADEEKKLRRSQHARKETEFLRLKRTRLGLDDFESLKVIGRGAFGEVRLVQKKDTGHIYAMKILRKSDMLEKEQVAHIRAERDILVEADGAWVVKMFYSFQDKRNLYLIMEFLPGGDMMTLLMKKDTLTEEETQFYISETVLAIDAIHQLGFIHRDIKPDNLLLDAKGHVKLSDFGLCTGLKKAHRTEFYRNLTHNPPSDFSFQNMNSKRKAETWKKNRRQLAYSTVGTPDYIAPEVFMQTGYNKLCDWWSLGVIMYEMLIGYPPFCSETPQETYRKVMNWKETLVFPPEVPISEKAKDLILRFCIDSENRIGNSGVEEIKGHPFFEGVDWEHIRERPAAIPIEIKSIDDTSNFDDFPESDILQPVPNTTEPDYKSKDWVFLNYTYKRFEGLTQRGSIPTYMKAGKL

[11] = biological target: Serine/threonine-protein kinase 38 (Homo sapiens, UniProt Q15208)
Serine/threonine-protein kinase 38, sequence (Q15208 whole entry): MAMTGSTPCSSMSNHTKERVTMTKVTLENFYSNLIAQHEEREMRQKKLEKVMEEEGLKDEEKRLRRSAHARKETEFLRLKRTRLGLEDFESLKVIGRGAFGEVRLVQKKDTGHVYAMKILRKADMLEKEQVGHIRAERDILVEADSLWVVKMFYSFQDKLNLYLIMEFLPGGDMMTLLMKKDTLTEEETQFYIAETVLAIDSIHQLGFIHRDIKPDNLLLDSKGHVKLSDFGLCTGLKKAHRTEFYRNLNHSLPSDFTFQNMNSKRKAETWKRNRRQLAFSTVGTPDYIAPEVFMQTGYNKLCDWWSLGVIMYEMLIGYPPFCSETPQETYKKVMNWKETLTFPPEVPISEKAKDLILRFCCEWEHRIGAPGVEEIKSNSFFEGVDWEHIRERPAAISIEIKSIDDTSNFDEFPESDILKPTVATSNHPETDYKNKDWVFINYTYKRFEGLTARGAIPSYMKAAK

[12] = biological target: Ras-related C3 botulinum toxin substrate 1 (Homo sapiens, UniProt P63000)
[13] = biological target: T3, Dual specificity mitogen-activated protein kinase kinase 4 (Homo sapiens, UniProt P45985)
T3 sequence (P45985 whole entry): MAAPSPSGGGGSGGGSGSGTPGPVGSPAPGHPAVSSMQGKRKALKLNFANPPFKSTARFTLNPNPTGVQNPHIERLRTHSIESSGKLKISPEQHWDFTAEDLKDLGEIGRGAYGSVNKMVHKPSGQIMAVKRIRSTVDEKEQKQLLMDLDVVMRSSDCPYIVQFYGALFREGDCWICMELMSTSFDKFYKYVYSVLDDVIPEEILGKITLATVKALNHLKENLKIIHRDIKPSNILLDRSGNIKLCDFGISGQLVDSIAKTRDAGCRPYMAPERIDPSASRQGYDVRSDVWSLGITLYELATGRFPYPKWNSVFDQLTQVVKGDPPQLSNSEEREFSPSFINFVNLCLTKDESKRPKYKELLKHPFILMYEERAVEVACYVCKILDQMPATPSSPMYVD
Further: in the data inactive means no Kd found up to 30 µM.

Serine/threonine-protein kinase PLK1, sequence (P53350 whole entry): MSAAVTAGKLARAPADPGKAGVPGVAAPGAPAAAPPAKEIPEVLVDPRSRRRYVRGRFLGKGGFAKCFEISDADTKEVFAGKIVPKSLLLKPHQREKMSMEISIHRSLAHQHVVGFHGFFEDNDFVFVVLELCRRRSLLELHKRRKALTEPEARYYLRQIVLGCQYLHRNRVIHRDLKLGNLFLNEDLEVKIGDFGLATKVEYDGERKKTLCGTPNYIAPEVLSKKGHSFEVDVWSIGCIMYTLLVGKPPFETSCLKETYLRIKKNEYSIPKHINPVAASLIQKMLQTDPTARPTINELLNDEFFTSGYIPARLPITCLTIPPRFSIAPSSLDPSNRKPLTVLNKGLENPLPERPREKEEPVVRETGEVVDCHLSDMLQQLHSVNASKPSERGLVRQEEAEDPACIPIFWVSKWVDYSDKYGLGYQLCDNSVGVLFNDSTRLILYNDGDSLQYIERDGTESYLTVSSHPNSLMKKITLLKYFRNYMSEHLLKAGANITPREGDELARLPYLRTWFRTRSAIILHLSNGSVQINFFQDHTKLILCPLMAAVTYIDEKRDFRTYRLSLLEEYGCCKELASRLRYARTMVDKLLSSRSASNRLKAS

Compound | Kd [1] | Kd [2] | Kd [3] | Kd [4] | Kd [5] | Kd [6] | Kd (Misshapen-like kinase 1) | Kd [7] | Kd [8] | Kd [9] | Kd [10] | Kd [11] | Kd [12] | Kd [13]
O=C(Nc1ccc(OC(F)(F)F)cc1)c1sccc1NCc1ccnc2ccccc12 [OSI-930] | > 30 µM (inactive) | > 30 µM (inactive) | > 30 µM (inactive) | > 30 µM (inactive) | > 30 µM (inactive) | > 30 µM (inactive) | > 30 µM (inactive) | > 30 µM (inactive) | > 30 µM (inactive) | – | – | – | – | –
CCc1cc2c(cc1N1CCC(N3CCOCC3)CC1)C(C)(C)c1[nH]c3cc(C#N)ccc3c1C2=O [ALECTINIB] | > 30 µM (inactive) | > 30 µM (inactive) | > 30 µM (inactive) | > 30 µM (inactive) | > 30 µM (inactive) | > 30 µM (inactive) | > 30 µM (inactive) | > 30 µM (inactive) | > 30 µM (inactive) | > 30 µM (inactive) | – | – | – | –
CNC(=O)c1cccc(-c2ccc3c(N4CCOC[C@@H]4C)nc(N4CCOC[C@@H]4C)nc3n2)c1 [VISTUSERTIB] | > 30 µM (inactive) | > 30 µM (inactive) | – | > 30 µM (inactive) | > 30 µM (inactive) | > 30 µM (inactive) | – | > 30 µM (inactive) | – | – | > 30 µM (inactive) | > 30 µM (inactive) | – | –
NC[C@@](O)(c1ccc(Cl)cc1)c1ccc(-c2cn[nH]c2)cc1 [AT-13148] | – | – | – | – | – | > 30 µM (inactive) | > 30 µM (inactive) | – | – | > 30 µM (inactive) | – | > 30 µM (inactive) | > 30 µM (inactive) | –
Cc1c(Cn2c(C)nc3c(C(=O)O)cc(N4CCOCC4)cc32)cccc1C(F)(F)F [GSK-2636771] | – | – | – | – | > 30 µM (inactive) | – | – | – | > 30 µM (inactive) | – | – | – | > 30 µM (inactive) | > 30 µM (inactive)
Cn1cc(-c2[nH]c3cc(NC(=O)[C@H](N)C4CCCCC4)cc4c3c2C=NNC4=O)cn1 | > 30 µM (inactive) | 0.018 µM | – | > 30 µM (inactive) | > 30 µM (inactive) | > 30 µM (inactive) | 0.02 µM | > 30 µM (inactive) | > 30 µM (inactive) | – | > 30 µM (inactive) | – | – | –
COc1cc(F)c(F)c(Nc2ccc(I)cc2F)c1NS(=O)(=O)C1(C[C@H](O)CO)CC1 [REFAMETINIB] | – | – | – | – | – | – | > 30 µM (inactive) | > 30 µM (inactive) | – | – | > 30 µM (inactive) | > 30 µM (inactive) | > 30 µM (inactive) | –
CCc1nc(C(N)=O)c(Nc2ccc(N3CCC(N4CCN(C)CC4)CC3)c(OC)c2)nc1NC1CCOCC1 [GILTERITINIB] | – | – | – | – | – | – | – | > 30 µM (inactive) | – | – | – | > 30 µM (inactive) | > 30 µM (inactive) | –
C#Cc1cccc(Nc2ncnc3cc4c(cc23)OCCOCCOCCO4)c1 [ICOTINIB] | > 30 µM (inactive) | > 30 µM (inactive) | > 30 µM (inactive) | > 30 µM (inactive) | > 30 µM (inactive) | > 30 µM (inactive) | > 30 µM (inactive) | > 30 µM (inactive) | – | – | – | > 30 µM (inactive) | – | > 30 µM (inactive)
O=S(=O)(c1cccc2cnccc12)N1CCCNCC1 [FASUDIL] | – | – | – | – | > 30 µM (inactive) | > 30 µM (inactive) | – | – | – | > 30 µM (inactive) | – | – | > 30 µM (inactive) | –
O=C(NC[C@H](O)CO)c1ccncc1Nc1ccc(I)cc1F [PIMASERTIB] | > 30 µM (inactive) | – | – | > 30 µM (inactive) | > 30 µM (inactive) | > 30 µM (inactive) | > 30 µM (inactive) | > 30 µM (inactive) | > 30 µM (inactive) | > 30 µM (inactive) | – | – | – | > 30 µM (inactive)
CN1CCN(c2nc(C3=C(c4c[nH]c5ccccc45)C(=O)NC3=O)c3ccccc3n2)CC1 [SOTRASTAURIN] | – | > 30 µM (inactive) | > 30 µM (inactive) | > 30 µM (inactive) | – | – | 0.041 µM (active) | > 30 µM (inactive) | > 30 µM (inactive) | – | > 30 µM (inactive) | – | > 30 µM (inactive) | –
